{"source": "patent US11384090B2", "about": "“Spiropyrrolidine derived antiviral agents” (priority 2020, dated 2022)", "data": [{"molecular_target": "SARS-CoV-2 3CL-protease (Severe acute respiratory syndrome coronavirus 2 (2019-nCoV) (SARS-CoV-2), UniProt P0DTD1)", "test": "biochemical", "conditions": "read-out: FRET IC50", "units": {"IC50": "nM"}, "values": [{"smiles": "CC(C)(C)C[C@H](NC(=O)c1cc2c(F)cccc2[nH]1)C(=O)N1C[C@]2(C[C@H]1C#N)C(=O)Nc1ccccc12", "note": "[Compound 21]", "IC50": "< 100"}, {"smiles": "CC(C)C[C@@H](C(=O)N1C[C@]2(C[C@H]1C=O)C(=O)Nc1ccccc12)N(C)C(=O)OCc1ccccc1", "note": "[Compound 24]", "IC50": "100 to 1000"}, {"smiles": "CN(C(=O)OCc1ccccc1)[C@@H](Cc1ccccc1)C(=O)N1C[C@]2(C[C@H]1C#N)C(=O)Nc1ccccc12", "note": "[Compound 41]", "IC50": "< 100"}]}, {"system": "229E human corona virus (hCoV)", "test": "229E live virus assay", "format": "cell-based, hCoV-229E", "conditions": "Human coronavirus 229E, MRC5, 144 h, read-out: 229E EC50", "units": {"EC50": "nM"}, "values": [{"smiles": "CN(C(=O)c1cc2c(F)cc(F)cc2[nH]1)[C@@H](Cc1ccccc1)C(=O)N1C[C@]2(C[C@H]1C#N)C(=O)Nc1ccccc12", "note": "[Compound 81]", "EC50": "< 100"}]}, {"system": "229E human corona virus (hCoV)", "test": "229E live virus assay", "format": "cell-based, hCoV-229E", "conditions": "MRC-5 cells, MOI 0.05, 6 days at 34° C., ATPlite readout, run in duplicate; read-out: 229E EC50", "units": {"EC50": "nM"}, "values": [{"smiles": "CC(C)C[C@H](NC(=O)OCc1ccccc1)C(=O)N1C[C@]2(C[C@H]1C#N)C(=O)Nc1ccccc12", "note": "[Compound 1]", "EC50": "100 to 1000"}, {"smiles": "COc1cccc2[nH]c(C(=O)N[C@@H](CC(C)C)C(=O)N3C[C@]4(C[C@H]3C#N)C(=O)Nc3ccccc34)cc12", "note": "[Compound 11]", "EC50": "< 100"}, {"smiles": "COc1cccc2[nH]c(C(=O)N[C@H](CC(C)C)C(=O)N3C[C@]4(C[C@H]3C#N)C(=O)Nc3ccccc34)cc12", "note": "[Compound 12]", "EC50": "100 to 1000"}, {"smiles": "COc1cccc2[nH]c(C(=O)N[C@H](CC(C)(C)C)C(=O)N3C[C@]4(C[C@H]3C#N)C(=O)Nc3ccccc34)cc12", "note": "[Compound 16]", "EC50": "100 to 1000"}, {"smiles": "COc1cccc2[nH]c(C(=O)N[C@@H](CC3CCC3)C(=O)N3C[C@]4(C[C@H]3C#N)C(=O)Nc3ccccc34)cc12", "note": "[Compound 17]", "EC50": "< 100"}, {"smiles": "COc1cccc2[nH]c(C(=O)N[C@@H](CC(C)C)C(=O)N3C[C@]4(C[C@H]3C=O)C(=O)Nc3ccccc34)cc12", "note": "[Compound 23]", "EC50": "< 100"}, {"smiles": "COc1cccc2[nH]c(C(=O)N[C@@H](CC(C)C)C(=O)N3C[C@]4(C[C@H]3C(=O)C(=O)NC3CC3)C(=O)Nc3ccccc34)cc12", "note": "[Compound 31]", "EC50": "100 to 1000"}, {"smiles": "CC(C)C[C@@H](C(=O)N1C[C@]2(C[C@H]1C#N)C(=O)Nc1ccccc12)N(C)C(=O)OCc1ccccc1", "note": "[Compound 39]", "EC50": "> 1000"}, {"smiles": "CN(C(=O)OCc1ccccc1)[C@@H](CC1CCC1)C(=O)N1C[C@]2(C[C@H]1C#N)C(=O)Nc1ccccc12", "note": "[Compound 89]", "EC50": "100 to 1000"}, {"smiles": "CN(C(=O)c1cc2c(F)cc(F)cc2[nH]1)[C@@H](CC1CCC1)C(=O)N1C[C@]2(C[C@H]1C#N)C(=O)Nc1ccccc12", "note": "[Compound 91]", "EC50": "< 100"}, {"smiles": "C=CCN(C(=O)OCc1ccccc1)[C@@H](CC(C)C)C(=O)N1C[C@]2(C[C@H]1C#N)C(=O)Nc1ccccc12", "note": "[Compound 96]", "EC50": "100 to 1000"}, {"smiles": "CCCN(C(=O)OCc1ccccc1)[C@@H](CC(C)C)C(=O)N1C[C@]2(C[C@H]1C#N)C(=O)Nc1ccccc12", "note": "[Compound 97]", "EC50": "> 1000"}, {"smiles": "CCCN(C(=O)c1cc2c(F)cccc2[nH]1)[C@@H](CC(C)C)C(=O)N1C[C@]2(C[C@H]1C#N)C(=O)Nc1ccccc12", "note": "[Compound 98]", "EC50": "100 to 1000"}, {"smiles": "CC(C)CC[C@@H](C(=O)N1C[C@]2(C[C@H]1C#N)C(=O)Nc1ccccc12)N(C)C(=O)c1cc2c(F)cc(F)cc2[nH]1", "note": "[Compound 104]", "EC50": "< 100"}]}]}
